Patent US20250145606A1 (Arcus Biosciences, Inc., priority 2023, published 2025)

Legend:
[1] = system: Phospho-KIT (Y703) in M07e cells; assay: Phospho-KIT (Y703) cellular assay in M07e cells; assay type: cell-based; conditions: M-07e; Phospho-KIT (Y703), M07e cells; read-out: M07e Cell IC50
Description: Phospho-KIT (Y703) Cellular Assay in M07e Cells
The day prior to assay, M07e cells (DSMZ, catalog #ACC 104) were serum starved. Cells were centrifuged and cell pellet resuspended in OptiMEM (Gibco, catalog #31985062) to a density of 1×10^6-2.5×10^6 cells per mL. Cells were then incubated overnight at 5% CO2 and 37° C. in an appropriately sized flask. On the day of the experiment, an 11 point, half log titration of test compound was pre-dispensed into 96-well round bottom polypropylene plates (Corning, catalog #3365). The serum starved M07e cells were centrifuged and resuspended to a cell density of 1×10^6 cells per mL with DPBS (Gibco, catalog #14190-144). Live/Dead Green Fixable viability dye (Invitrogen, catalog #L34970) was added as 1 μL/1 mL of cell suspension. Cells were then incubated in the dark at 4° C. for 30 min. Cells were washed by centrifugation and resuspension with DPBS+0.5% BSA (Gemini Bio Products, catalog #700110/100, 30% BSA solution). Cells were resuspended, separated into two equal volumes and again centrifuged. Cell pellets were resuspended with OptiMEM™ to a cell density of 1×10^6 cells per mL. Cells were then added to the appropriate compound plate at 100,000 cells per well in 100 μL and mixed. Plates were incubated at 5% CO2 and 37° C. for 50 min. Stem Cell Factor, SCF (R&D Systems, #255-SC/CF) was diluted in OptiMEM to 1 μg/mL and added to all wells as 10 μL for a final concentration of 90.9 ng/mL. Plates were incubated at 5% CO2 and 37° C. for 10 min. Incubation was stopped by addition of 110 μL 4% paraformaldehyde solution in PBS (Life Technologies, catalog #J19943.K2). Plates were incubated at rt for at least 15 min. Plates were then centrifuged and supernatant removed by flicking. Cells were washed once by resuspension in 200 μL DPBS+0.5% BSA, centrifuged, and supernatant removed by flicking. Cells were resuspended in 100 μL 1X Permeabilization buffer (Invitrogen, catalog #88882400) and plates incubated at rt for 30 min. Plates were centrifuged, supernatant removed by flicking, and cells resuspended in 50 μL primary antibody, anti-phospho-c-KIT (Tyr703) (Cell Signaling, catalog #3073), diluted to 1 μg/mL with permeabilization buffer. Plates were incubated at rt for 1 h. Plates were centrifuged, supernatant removed, and cells resuspended with 200 μL DPBS+0.5% BSA. Plates were again centrifuged, supernatant removed by flicking, and cells resuspended in 100 μL secondary antibody, goat anti-rabbit AlexaFluor647 (AF647) (Invitrogen, catalog #A21244) diluted to 1 μg/mL with DPBS+0.5% BSA. Plates were incubated at rt for 30 min. followed by centrifugation, supernatant removal, and cell resuspension with 200 μL DPBS+0.5% BSA. Cells were washed again by centrifugation, supernatant removal, and cell resuspension with 200 μL DPBS+0.5% BSA. Samples were then read by flow cytometry. The Forward: Side scatter plot was gated and that population was gated for live cells based on the Live/Dead Green staining. The geometric mean of AF647 of the live cell population was recorded. Percentage maximum activity in each test well was calculated based on DMSO (100% activity) and positive control treated cell wells (0% activity). The potencies (IC50 values) of test compounds were determined using a standard 4-parameter non-linear regression fit.

c-Kit = c-Kit (Homo sapiens (Human), UniProt P10721); assay: Inhibition of c-Kit kinase activity (HTRF KinEASE-TK); assay type: biochemical; conditions: biochemical, HTRF KinEASE-TK
In short: (§1)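 Human kinases were preincubated 1 h at rt with a 22-point 1:2 compound titration, then run 120 min at rt with biotinylated TK peptide and ATP (2× mix: c-Kit 16 μM, PDGFRα 1 μM, PDGFRβ 40 μM, CSF1R 20 μM). Phosphopeptide was read by HTRF TR-FRET (665/620 nm), and IC50s came from 4-parameter fits.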

CSF1R = CSF1R (Homo sapiens (Human), UniProt P07333); assay: Inhibition of CSF1R kinase activity (HTRF KinEASE-TK); conditions: biochemical, HTRF KinEASE-TK
In short: as §1

PDGFRβ = PDGFRβ (Homo sapiens (Human), UniProt P09619); assay: Inhibition of PDGFRβ kinase activity (HTRF KinEASE-TK); conditions: biochemical, HTRF KinEASE-TK
In short: as §1

PDGFRα = PDGFRα (Homo sapiens (Human), UniProt P16234); assay: Inhibition of PDGFRα kinase activity (HTRF KinEASE-TK); conditions: biochemical, HTRF KinEASE-TK
In short: as §1

Sequence of PDGFRβ (P09619 33-1106): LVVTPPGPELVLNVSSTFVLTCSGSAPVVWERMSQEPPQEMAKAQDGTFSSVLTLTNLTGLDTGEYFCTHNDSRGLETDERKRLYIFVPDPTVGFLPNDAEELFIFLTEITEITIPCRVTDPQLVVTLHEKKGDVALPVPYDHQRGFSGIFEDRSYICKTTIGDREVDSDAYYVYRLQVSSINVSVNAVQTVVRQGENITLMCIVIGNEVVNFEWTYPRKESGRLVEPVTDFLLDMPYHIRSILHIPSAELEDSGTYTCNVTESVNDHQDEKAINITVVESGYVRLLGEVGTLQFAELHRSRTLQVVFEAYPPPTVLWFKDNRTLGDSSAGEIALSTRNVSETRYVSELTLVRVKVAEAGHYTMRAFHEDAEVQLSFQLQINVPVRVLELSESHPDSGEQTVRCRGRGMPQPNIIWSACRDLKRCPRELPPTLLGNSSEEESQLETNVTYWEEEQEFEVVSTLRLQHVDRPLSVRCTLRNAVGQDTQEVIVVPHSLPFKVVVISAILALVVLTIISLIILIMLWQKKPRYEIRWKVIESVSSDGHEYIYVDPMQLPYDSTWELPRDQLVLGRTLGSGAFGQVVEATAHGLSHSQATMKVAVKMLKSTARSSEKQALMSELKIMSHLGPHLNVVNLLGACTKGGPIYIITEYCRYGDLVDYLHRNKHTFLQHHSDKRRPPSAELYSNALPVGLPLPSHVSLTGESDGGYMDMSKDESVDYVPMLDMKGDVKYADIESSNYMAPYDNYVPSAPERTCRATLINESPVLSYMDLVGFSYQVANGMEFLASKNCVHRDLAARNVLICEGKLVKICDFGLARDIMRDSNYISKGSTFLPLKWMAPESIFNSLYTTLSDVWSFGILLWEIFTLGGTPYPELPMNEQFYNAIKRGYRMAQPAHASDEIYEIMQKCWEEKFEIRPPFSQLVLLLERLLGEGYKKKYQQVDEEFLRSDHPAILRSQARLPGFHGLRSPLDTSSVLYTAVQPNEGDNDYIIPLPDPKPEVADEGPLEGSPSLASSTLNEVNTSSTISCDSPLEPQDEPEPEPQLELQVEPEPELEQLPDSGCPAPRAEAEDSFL
Sequence of c-Kit (P10721 26-976): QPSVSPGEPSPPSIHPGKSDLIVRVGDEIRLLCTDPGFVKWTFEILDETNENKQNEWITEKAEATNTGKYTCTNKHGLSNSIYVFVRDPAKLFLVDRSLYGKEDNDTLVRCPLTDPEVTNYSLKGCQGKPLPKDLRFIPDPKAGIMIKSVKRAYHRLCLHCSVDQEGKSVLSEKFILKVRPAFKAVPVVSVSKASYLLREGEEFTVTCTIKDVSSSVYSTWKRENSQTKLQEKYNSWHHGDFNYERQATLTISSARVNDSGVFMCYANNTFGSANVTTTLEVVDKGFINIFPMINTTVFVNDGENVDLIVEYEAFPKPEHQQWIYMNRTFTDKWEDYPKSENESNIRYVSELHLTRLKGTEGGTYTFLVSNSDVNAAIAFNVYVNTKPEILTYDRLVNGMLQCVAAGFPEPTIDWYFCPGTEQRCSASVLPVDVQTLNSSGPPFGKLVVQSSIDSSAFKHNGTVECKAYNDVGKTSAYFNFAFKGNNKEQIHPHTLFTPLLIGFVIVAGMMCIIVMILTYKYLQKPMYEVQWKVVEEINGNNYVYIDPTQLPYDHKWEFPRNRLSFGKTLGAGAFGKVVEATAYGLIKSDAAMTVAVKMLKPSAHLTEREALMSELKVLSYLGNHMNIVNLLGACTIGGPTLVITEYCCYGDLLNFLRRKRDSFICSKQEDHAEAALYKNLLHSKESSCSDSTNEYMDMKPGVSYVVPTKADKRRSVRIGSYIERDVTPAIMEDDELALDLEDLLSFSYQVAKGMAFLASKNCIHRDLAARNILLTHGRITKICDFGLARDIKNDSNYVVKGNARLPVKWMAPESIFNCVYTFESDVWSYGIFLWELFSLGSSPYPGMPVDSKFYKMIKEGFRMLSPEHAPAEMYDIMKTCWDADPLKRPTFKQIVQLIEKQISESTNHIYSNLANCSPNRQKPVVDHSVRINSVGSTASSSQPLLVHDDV
Sequence of PDGFRα (P16234 24-1089): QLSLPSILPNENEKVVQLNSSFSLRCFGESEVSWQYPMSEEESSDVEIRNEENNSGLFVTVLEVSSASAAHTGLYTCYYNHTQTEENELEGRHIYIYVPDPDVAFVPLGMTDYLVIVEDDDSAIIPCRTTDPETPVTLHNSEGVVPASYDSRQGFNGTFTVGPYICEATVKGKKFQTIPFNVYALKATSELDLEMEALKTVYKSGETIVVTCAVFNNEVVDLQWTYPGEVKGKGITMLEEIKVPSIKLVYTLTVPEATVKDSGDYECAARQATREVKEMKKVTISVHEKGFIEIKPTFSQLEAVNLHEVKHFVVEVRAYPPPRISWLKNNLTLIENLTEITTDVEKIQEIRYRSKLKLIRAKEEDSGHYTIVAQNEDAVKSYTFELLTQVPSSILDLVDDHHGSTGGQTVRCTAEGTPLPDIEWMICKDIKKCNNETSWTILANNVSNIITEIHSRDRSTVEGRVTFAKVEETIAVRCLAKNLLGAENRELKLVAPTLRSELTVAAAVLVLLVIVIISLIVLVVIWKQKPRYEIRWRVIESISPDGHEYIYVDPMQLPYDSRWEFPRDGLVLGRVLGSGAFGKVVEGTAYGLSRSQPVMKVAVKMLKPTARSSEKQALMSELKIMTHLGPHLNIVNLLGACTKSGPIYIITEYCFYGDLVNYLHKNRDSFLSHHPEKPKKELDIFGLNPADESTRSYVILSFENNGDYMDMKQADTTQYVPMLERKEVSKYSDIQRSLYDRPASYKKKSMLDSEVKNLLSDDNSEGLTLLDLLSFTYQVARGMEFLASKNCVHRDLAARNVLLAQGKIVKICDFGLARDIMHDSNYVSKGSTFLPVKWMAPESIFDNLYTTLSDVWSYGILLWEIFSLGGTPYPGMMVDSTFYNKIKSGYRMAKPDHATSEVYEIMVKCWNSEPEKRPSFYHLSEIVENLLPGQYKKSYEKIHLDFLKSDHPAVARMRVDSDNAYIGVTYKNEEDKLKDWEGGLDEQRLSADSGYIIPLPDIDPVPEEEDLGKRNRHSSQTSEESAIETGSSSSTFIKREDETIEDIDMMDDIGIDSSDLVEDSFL
Sequence of CSF1R (P07333 20-972): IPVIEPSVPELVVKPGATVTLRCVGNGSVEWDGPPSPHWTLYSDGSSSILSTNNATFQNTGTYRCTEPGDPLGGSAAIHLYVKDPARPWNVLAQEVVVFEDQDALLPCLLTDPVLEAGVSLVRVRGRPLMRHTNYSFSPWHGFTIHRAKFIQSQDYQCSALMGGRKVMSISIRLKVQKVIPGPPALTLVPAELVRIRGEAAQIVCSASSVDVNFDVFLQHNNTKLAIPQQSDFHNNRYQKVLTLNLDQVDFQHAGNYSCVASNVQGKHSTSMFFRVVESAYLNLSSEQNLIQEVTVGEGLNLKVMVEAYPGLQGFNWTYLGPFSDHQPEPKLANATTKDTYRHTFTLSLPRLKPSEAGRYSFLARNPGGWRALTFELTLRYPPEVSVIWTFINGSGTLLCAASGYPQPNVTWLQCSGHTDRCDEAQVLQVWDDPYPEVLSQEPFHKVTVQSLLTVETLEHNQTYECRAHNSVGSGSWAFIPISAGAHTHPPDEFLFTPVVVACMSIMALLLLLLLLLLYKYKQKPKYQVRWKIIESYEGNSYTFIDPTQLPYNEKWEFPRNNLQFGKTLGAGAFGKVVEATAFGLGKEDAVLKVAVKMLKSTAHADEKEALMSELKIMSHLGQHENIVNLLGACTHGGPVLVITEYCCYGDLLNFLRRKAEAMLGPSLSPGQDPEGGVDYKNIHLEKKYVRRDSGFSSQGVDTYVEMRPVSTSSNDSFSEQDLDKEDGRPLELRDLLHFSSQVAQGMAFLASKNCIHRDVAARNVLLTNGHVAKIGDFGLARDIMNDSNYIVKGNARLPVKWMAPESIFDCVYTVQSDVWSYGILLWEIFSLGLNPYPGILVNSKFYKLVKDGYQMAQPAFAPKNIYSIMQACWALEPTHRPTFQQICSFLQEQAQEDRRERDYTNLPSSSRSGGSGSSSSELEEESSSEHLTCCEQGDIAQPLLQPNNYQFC

SMILES | IC50 [1] [µM] | IC50 (c-Kit) [µM] | IC50 (CSF1R) [µM] | IC50 (PDGFRβ) [µM] | IC50 (PDGFRα) [µM]
Cc1ncc(C(=O)Nc2cc(C(=O)Nc3cncc(C(F)F)c3)c(F)cc2C)s1 [Example 76, N-[5-[[5-(difluoromethyl)pyridin-3-yl]carbamoyl]-4-fluoro-2-methylphenyl]-2-methyl-1,3-thiazole-5-carboxamide] | < 0.1 | < 0.1 | > 1 | – | –
Cc1ncc(C(=O)Nc2cc(C(=O)Nc3cncc(C(F)(F)F)n3)c(F)cc2C)s1 [Example 33, N-[4-fluoro-2-methyl-5-[[6-(trifluoromethyl)pyrazin-2-yl]carbamoyl]phenyl]-2-methyl-1,3-thiazole-5-carboxamide] | 0.1 to 1 | < 0.1 | > 1 | – | –
Cc1ncc(C(=O)Nc2cc(C(=O)Nc3cccc(C(F)(F)F)n3)c(F)cc2C)s1 [Example 55, N-[4-fluoro-2-methyl-5-[[6-(trifluoromethyl)pyridin-2-yl]carbamoyl]phenyl]-2-methyl-1,3-thiazole-5-carboxamide] | < 0.1 | < 0.1 | > 1 | – | –
Cc1ncc(C(=O)Nc2cc(C(=O)Nc3ccc(CC(F)(F)F)nc3)c(F)cc2C)s1 [Example 98, N-[4-fluoro-2-methyl-5-[[6-(2,2,2-trifluoroethyl)pyridin-3-yl]carbamoyl]phenyl]-2-methyl-1,3-thiazole-5-carboxamide] | < 0.1 | < 0.1 | > 1 | – | –
Cc1ncc(C(=O)Nc2cc(C(=O)Nc3ccnc(C#N)c3)c(F)cc2C)s1 [Example 18, N-[5-[(2-Cyanopyridin-4-yl)carbamoyl]-4-fluoro-2-methylphenyl]-2-methyl-1,3-thiazole-5-carboxamide] | 0.1 to 1 | < 0.1 | > 1 | – | –
Cc1ncc(C(=O)Nc2cc(C(=O)Nc3cncc(C(F)(F)F)c3)c(F)cc2C)s1 [Example 77, N-[4-fluoro-2-methyl-5-[[5-(trifluoromethyl)pyridin-3-yl]carbamoyl]phenyl]-2-methyl-1,3-thiazole-5-carboxamide] | < 0.1 | < 0.1 | > 1 | – | –
Cc1ncc(C(=O)Nc2cc(C(=O)Nc3ccc(C#N)cn3)c(F)cc2C)s1 [Example 19, N-[5-[(5-Cyanopyridin-2-yl)carbamoyl]-4-fluoro-2-methylphenyl]-2-methyl-1,3-thiazole-5-carboxamide] | 0.1 to 1 | 0.1 to 1 | > 1 | – | –
Cc1ncc(C(=O)Nc2cc(C(=O)Nc3ccc(C(F)F)nc3)c(F)cc2C)s1 [Example 54, N-[5-[[6-(difluoromethyl)pyridin-3-yl]carbamoyl]-4-fluoro-2-methylphenyl]-2-methyl-1,3-thiazole-5-carboxamide] | < 0.1 | < 0.1 | – | – | –
Cc1ncc(C(=O)Nc2cc(C(=O)NCc3cccnc3)c(F)cc2C)s1 [Example 12, N-(4-Fluoro-2-methyl-5-((pyridin-3-ylmethyl)carbamoyl)phenyl)-2-methylthiazole-5-carboxamide] | 0.1 to 1 | 0.1 to 1 | – | – | –
Cc1ncc(C(=O)Nc2cc(C(=O)Nc3ccnc(C(F)F)c3)c(F)cc2C)s1 [Example 22, N-[5-[[2-(Difluoromethyl)pyridin-4-yl]carbamoyl]-4-fluoro-2-methylphenyl]-2-methyl-1,3-thiazole-5-carboxamide] | 0.1 to 1 | < 0.1 | > 1 | – | –
COc1cnc(NC(=O)c2cc(NC(=O)c3cnc(C)s3)c(C)cc2F)cn1 [Example 23, N-[4-Fluoro-5-[(5-methoxypyrazin-2-yl)carbamoyl]-2-methylphenyl]-2-methyl-1,3-thiazole-5-carboxamide] | 0.1 to 1 | < 0.1 | > 1 | – | –
Cc1ncc(C(=O)Nc2cc(C(=O)Nc3cnc(C(F)(F)F)cn3)c(F)cc2C)s1 [Example 29, N-[4-fluoro-2-methyl-5-[[5-(trifluoromethyl)pyrazin-2-yl]carbamoyl]phenyl]-2-methyl-1,3-thiazole-5-carboxamide] | < 0.1 | < 0.1 | > 1 | – | –
Cc1cc(F)c(C(=O)Nc2cncc(C(F)F)c2)cc1NC(=O)c1cnc(N)s1 [Example 246, 2-Amino-N-[5-[[5-(difluoromethyl)pyridin-3-yl]carbamoyl]-4-fluoro-2-methylphenyl]-1,3-thiazole-5-carboxamide] | < 0.1 | < 0.1 | < 0.1 | – | –
Cc1ncc(C(=O)Nc2cc(C(=O)Nc3cnc(OC(F)F)cn3)c(F)cc2C)s1 [Example 15, N-[5-[[5-(Difluoromethoxy)pyrazin-2-yl]carbamoyl]-4-fluoro-2-methylphenyl]-2-methyl-1,3-thiazole-5-carboxamide] | < 0.1 | < 0.1 | > 1 | – | –
Cc1cc(F)c(NC(=O)c2cnc(N)s2)cc1C(=O)Nc1ccc(OC2CC2)cn1 [Example 223, 2-Amino-N-[5-[(5-cyclopropyloxypyridin-2-yl)carbamoyl]-2-fluoro-4-methylphenyl]-1,3-thiazole-5-carboxamide] | – | 0.1 to 1 | > 1 | > 1 | > 1
Cc1ncc(C(=O)Nc2cc(C(=O)Nc3cnc(C4CC4)cn3)c(F)cc2C)s1 [Example 43, N-[5-[(5-cyclopropylpyrazin-2-yl)carbamoyl]-4-fluoro-2-methylphenyl]-2-methyl-1,3-thiazole-5-carboxamide] | – | < 0.1 | > 1 | > 1 | > 1
Cc1cc(F)c(C(=O)Nc2ccc3c(c2)C(F)(F)C(=O)N3)cc1NC(=O)c1cnc(N)s1 [Example 188, 2-Amino-N-[5-[(3,3-difluoro-2-oxo-1H-indol-5-yl)carbamoyl]-4-fluoro-2-methylphenyl]-1,3-thiazole-5-carboxamide] | – | < 0.1 | < 0.1 | < 0.1 | < 0.1
Cc1ncc(C(=O)Nc2cc(C(=O)Nc3ccc(C(F)(F)F)nc3)c(F)cc2C)s1 [Example 26, N-[4-Fluoro-2-methyl-5-[[6-(trifluoromethyl)pyridin-3-yl]carbamoyl]phenyl]-2-methyl-1,3-thiazole-5-carboxamide] | – | < 0.1 | > 1 | > 1 | > 1
Cc1ncc(C(=O)Nc2cc(C(=O)Nc3ccc(OC4CC4)c(C)n3)c(F)cc2C)s1 [Example 62, N-[5-[(5-Cyclopropyloxy-6-methylpyridin-2-yl)carbamoyl]-4-fluoro-2-methylphenyl]-2-methyl-1,3-thiazole-5-carboxamide] | – | < 0.1 | > 1 | > 1 | > 1
Cc1cc(F)c(C(=O)Nc2ccc(OC3CC3)cn2)cc1NC(=O)c1cnc(NCC(F)F)s1 [Example 235, N-[5-[(5-cyclopropyloxypyridin-2-yl)carbamoyl]-4-fluoro-2-methylphenyl]-2-(2,2-difluoroethylamino)-1,3-thiazole-5-carboxamide] | – | < 0.1 | > 1 | 0.1 to 1 | > 1
